In general, IC50 refers to the point on the concentration scale where inhibition reaches its midpoint. Low values mean higher potency, high ones lower potency.

Calls of active or inactive are those of the source. The calls are words filed in the database; no cut-off is given here.

Experimental findings from ChEMBL document CHEMBL5247643, “Discovery and Characterization of BAY-805, a Potent and Selective Inhibitor of Ubiquitin-Specific Protease USP21” (J Med Chem, 2023) are described below.

Experiment [1] has as its target T1, Ubiquitin carboxyl-terminal hydrolase 21 (Homo sapiens, UniProt Q9UK80).
T1 sequence (Q9UK80 whole entry): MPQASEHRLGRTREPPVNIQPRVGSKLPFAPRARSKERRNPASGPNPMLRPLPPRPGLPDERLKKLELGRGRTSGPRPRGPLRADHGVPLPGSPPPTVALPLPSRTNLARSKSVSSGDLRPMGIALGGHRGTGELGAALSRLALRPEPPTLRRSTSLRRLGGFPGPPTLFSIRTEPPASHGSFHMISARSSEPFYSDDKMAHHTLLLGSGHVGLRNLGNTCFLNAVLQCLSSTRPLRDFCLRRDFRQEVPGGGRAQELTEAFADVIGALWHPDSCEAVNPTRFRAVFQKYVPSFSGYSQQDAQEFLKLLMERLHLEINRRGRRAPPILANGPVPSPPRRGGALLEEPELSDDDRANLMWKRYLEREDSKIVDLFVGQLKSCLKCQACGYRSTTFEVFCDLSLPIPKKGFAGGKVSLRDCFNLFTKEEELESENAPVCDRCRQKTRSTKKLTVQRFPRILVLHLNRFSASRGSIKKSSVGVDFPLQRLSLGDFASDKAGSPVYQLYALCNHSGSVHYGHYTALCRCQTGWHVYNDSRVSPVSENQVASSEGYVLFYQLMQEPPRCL
Kind of experiment: Inhibition of human full length USP21 using Btn-Ahx-PNIRFLD-K(Ubi)-LPQQT-GD-amide as substrate preincubated for 15 to 20 mins followed by substrate addition and measured after 25 mins by HTRF assay.

A further experiment relates to Jurkat. Kind of experiment: Antiproliferative activity against human Jurkat cells assessed as reduction in cell viability up to 30 uM incubated for 72 hrs by CellTiter-Glo luminescent assay. The format is functional, cell-based. Background: ATP-based viability assays read luminescence as a measure of living cells.
In a further experiment the test system is MOLM-13. Briefly: Antiproliferative activity against human MOLM-13 cells assessed as reduction in cell viability up to 30 uM incubated for 72 hrs by CellTiter-Glo luminescent assay. The format is functional, cell-based.
Another experiment concerns A549. Kind of experiment: Antiproliferative activity against human A549 cells assessed as reduction in cell viability up to 30 uM incubated for 72 hrs by CellTiter-Glo luminescent assay. The class given is functional, cell-based.
A further experiment relates to MDA-MB-231. Kind of experiment: Antiproliferative activity against human MDA-MB-231 cells assessed as reduction in cell viability up to 30 uM incubated for 72 hrs by CellTiter-Glo luminescent assay. The format is functional, cell-based.
For another experiment, the system named is U2OS. Briefly: Antiproliferative activity against human U2OS cells assessed as reduction in cell viability up to 30 uM incubated for 72 hrs by CellTiter-Glo luminescent assay. The format is functional, cell-based.
The target in experiment [2] is T2, Ubiquitin carboxyl-terminal hydrolase 2 (Homo sapiens, UniProt O75604).
T2 sequence (O75604 whole entry): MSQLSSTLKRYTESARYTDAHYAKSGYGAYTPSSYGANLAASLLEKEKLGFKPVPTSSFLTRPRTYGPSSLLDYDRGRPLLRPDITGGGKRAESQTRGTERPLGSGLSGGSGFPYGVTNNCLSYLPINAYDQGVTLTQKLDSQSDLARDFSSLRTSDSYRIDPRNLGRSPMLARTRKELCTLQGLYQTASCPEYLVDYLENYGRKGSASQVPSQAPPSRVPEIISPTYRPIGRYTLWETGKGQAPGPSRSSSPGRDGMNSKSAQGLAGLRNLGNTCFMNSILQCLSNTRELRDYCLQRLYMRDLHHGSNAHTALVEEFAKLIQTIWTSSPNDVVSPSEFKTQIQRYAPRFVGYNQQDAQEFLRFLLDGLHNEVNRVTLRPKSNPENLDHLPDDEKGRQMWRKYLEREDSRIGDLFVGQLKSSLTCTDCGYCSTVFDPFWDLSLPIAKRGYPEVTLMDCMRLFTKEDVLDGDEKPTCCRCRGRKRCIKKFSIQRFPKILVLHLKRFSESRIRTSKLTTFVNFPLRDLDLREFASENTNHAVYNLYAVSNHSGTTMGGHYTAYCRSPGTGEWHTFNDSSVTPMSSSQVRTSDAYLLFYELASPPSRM
Briefly: Inhibition of human His-tagged USP2 (259 to 605 residues) using ubiquitin rhodamine 110 110 as substrate preincubated for 15 to 20 mins followed by enzyme addition and measured after 25 mins by fluorometric assay.

`N#Cc1ccc(Cc2nnc(NC(=O)[C@H](NC(=O)C3(C(F)(F)F)CCCCC3)C3CCCC3)s2)cc1` registered an IC50 in experiment [1] of 0.012 µM. In other words, the double-digit nanomolar range.

Turning to `CC(C)C[C@@H](NC(=O)C1(C(F)(F)F)CCCCC1)C(=O)Nc1nnc(Cc2ccc(C#N)cc2)s1`, the outcome in the experiment on Jurkat, in the experiment with MOLM-13, in the experiment on A549, with MDA-MB-231 and with U2OS was inactive.

The compound `COCC(NC(=O)C1CCCC1)C(=O)Nc1nnc(Cc2ccc([N+](=O)[O-])cc2)s1` (racemic) yielded an IC50 in experiment [2] of 25 µM. That is a double-digit micromolar value.
